Data from patent publication US20080132477A1, “Macrocyclic Compounds Useful as Bace Inhibitors” (priority 2005, published 2008).
Where two headings read alike, the source gives them in different places. Values belong to the compound of their own block, whether it stands above or below them.

Tests used:
Human BACE = biological target: T1, Human BACE (Homo sapiens, UniProt P56817); experiment: Test 1: Inhibition of Human BACE; type: biochemical; conditions: test not given; follows Tests 1-4, assumed BACE
T1 construct: Recombinant BACE (extracellular domain, expressed in baculovirus and purified using standard methods); made in house
T1 sequence (P56817 46-457 limits assumed): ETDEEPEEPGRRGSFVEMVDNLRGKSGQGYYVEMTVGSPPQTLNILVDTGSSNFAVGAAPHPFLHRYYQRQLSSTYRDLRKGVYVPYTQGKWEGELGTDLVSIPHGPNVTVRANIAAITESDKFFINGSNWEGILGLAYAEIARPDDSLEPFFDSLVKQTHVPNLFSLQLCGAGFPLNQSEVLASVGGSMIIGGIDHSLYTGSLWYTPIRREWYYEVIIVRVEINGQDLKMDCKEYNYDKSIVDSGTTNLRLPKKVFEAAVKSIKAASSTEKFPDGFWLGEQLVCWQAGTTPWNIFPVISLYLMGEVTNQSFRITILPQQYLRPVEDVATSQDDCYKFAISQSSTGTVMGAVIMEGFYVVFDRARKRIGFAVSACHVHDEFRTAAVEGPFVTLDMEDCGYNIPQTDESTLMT
Method: Test 1: Inhibition of Human BACE
Recombinant BACE (extracellular domain, expressed in baculovirus and purified using standard methods) at 6 nM concentration is incubated with the test compound at various concentrations for 1 hour at room temperature in 100 mM acetate buffer, pH 4.5, containing 0.1% CHAPS. Synthetic peptide substrate Mca-Ser-Glu-Val-Asn-Leu-Asp-Ala-Glu-Phe-Lys(DNP) is added to a final concentration of 3 μM and the increase in fluorescence is recorded at excitation of 325 nm and emission at 400 nm in a microplate spectro-fluorimeter for 20 minutes in 1-minute intervals. IC50 values are calculated from percentage of inhibition of BACE-activity as a function of the test compound concentration.

[1] = rcm bond, DCM, 40.0 °C

IC50 (Human BACE): 40 nM
SMILES: Cc1cc2cc(n1)NCCCCc1cccc(c1)C[C@@H]([C@H](O)CNCc1cccc(C(C)C)c1)NC2=O [Example 11, (S)-4-[(R)-1-Hydroxy-2-(3-isopropyl-benzylamino)-ethyl]-18-methyl-3,15,17-triaza-tricyclo[14.3.1.1*6,10*]henicosa-1(19),6,8,10(21),16(20),17-hexaen-2-one]

SMILES: COc1ccc2cc1CC=CCN(C(C)=O)c1cc(cc(Cl)n1)C(=O)N[C@H]([C@H]1CN(Cc3cccc(C(C)C)c3)C(=O)O1)C2
ring closure, yield of all isomers ([1]; from C=CCc1cc(C[C@H](NC(=O)c2cc(Cl)nc(N(CC=C)C(C)=O)c2)[C@H]2CN(Cc3cccc(C(C)C)c3)C(=O)O2)ccc1OC, Grubbs II (tricyclohexylphosphine[1,3-bis(2,4,6-trimethylphenyl)-4,5-dihydroimidazol-2-ylidene][benzylidene]ruthenium(IV) dichloride), 3.45 mM, 6.0 h): 77.6%

SMILES: CN(C)C(=O)c1cc2cc(c1)C(=O)N[C@H]([C@H](O)CCl)Cc1cccc(c1)OCC=CCO2
ring closure, yield of all isomers ([1]; from C=CCOc1cccc(C[C@H](NC(=O)c2cc(OCC=C)cc(C(=O)N(C)C)c2)[C@H](O)CCl)c1, Grubbs II, 18.9 mM, 1.5 h): 70%
